Measurements as given in patent publication EP1085812B1, “POTATO CYST NEMATODE CONTROLLING FACTORS AND THEIR USE IN AGRICULTURE” (priority 1998, dated 1999).
Where two headings read alike, the source gives them in different places.

Assays:
[1] = tested on: G. rostochiensis pathotype Ro-1; experiment: Interaction of glycoalkaloid dilution series with PRL in hatching assay; type: in vivo; details: Fig. 9
Source text: To investigate these interactions further, the response of PCN hatch to a dilution series of single natural potato-produced HFs (the glycoalkaloids α-solanine and α-chaconine: Devine, K.J. et al. ((1996) supra) was studied in the presence and absence of a PRL preparation, the concentration of the latter being adjusted to that used in Figs. 4 and 5.
Logarithmic dilution series ([…]) of the glycoalkaloids α-chaconine and α-solanine (Sigma Chemical Co. Poole, UK) were each prepared either in water or PRL (1mg ml^-1). Hatching activity was determined in these dilution series, with PRL (1mg ml^-1) and water as controls.
At each glycoalkaloid concentration, the hatching activity of (glycoalkaloid only), (PRL only) and (glycolalkaloid + PRL) preparations was determined. The difference between the observed hatch (in the presence of (glycoalkaloid only), (PRL only) and (glycoalkaloid + PRL) and the expected hatch if the effects of the glycoalkaloid and PRL were additive, (i.e. (glycoalkaloid only)) + (PRL only) was determined at each concentration of glycoalkaloid. The results are depicted in Fig. 9.

PCN = details: in aqueous solutions or as a solid; cited from earlier work
[2] = cited from earlier work

Row | Compound | effect on hatching activity of PRL ([1]; high concentrations of glycoalkaloid, dilution series in PRL (1mg ml^-1)) | effect on hatching activity of PRL ([1]; lower concentrations of glycoalkaloid, over a range of four orders of magnitude) | concentration at which active (PCN) | optimum concentration (PCN) | stability ([2]; pH below 2 and above 7) | stability ([2]; temperatures above about 35°C)
1 | C[C@H]1CC[C@@H]2[C@@H](C)[C@H]3[C@H](C[C@H]4[C@@H]5CC=C6C[C@@H](O[C@@H]7O[C@H](CO)[C@H](O)[C@H](O[C@@H]8O[C@H](CO)[C@@H](O)[C@H](O)[C@H]8O)[C@H]7O[C@@H]7O[C@@H](C)[C@H](O)[C@@H](O)[C@H]7O)CC[C@]6(C)[C@H]5CC[C@]34C)N2C1 [α-solanine] | markedly inhibited | interacted synergistically | – | – | – | –
2 | trans-2-(2-,13-dihydroxy-9-methoxy-7,7,16-trimethyl-5,10,20-trioxo-19-oxahexacyclo [9.7.0.1^3,6.0^3,8.1^12,16]-eicosa-1(11),8-dien-15-yl) cyclopropropanecarboxylic acid [hatching agent] | – | – | 0.01 - 1000 mg/kg soil | 1 - 100 mg/kg soil | unstable | unstable
